According to article PMC3376186 (Bioorganic & medicinal chemistry letters, 2012):

Experiments:
[1] = Mouse plasma and brain exposure after IP dose; type: in vivo, C57Bl6 mice
RORα = conditions: same FRET assay; reported; cited from earlier work
Rev-erbβ = conditions: Luminex technology; cited from earlier work
SF1 = conditions: same FRET assay; reported; cited from earlier work
[2] = test system: Rev-erbα-NCoR interaction; conditions: read-out: EC50, enhancement of Rev-erbα-NCoR interaction; FRET assay; cited from earlier work
LXRβ = conditions: reporter-gene assay; reported; cited from earlier work
LRH1 = conditions: same FRET assay; reported; cited from earlier work
LXRα = conditions: reporter-gene assay; reported; cited from earlier work
Rev-erbα [3] = target: T1, Rev-erbα (Homo sapiens, UniProt P20393); conditions: Luminex technology; cited from earlier work
T1 sequence (P20393 1-614): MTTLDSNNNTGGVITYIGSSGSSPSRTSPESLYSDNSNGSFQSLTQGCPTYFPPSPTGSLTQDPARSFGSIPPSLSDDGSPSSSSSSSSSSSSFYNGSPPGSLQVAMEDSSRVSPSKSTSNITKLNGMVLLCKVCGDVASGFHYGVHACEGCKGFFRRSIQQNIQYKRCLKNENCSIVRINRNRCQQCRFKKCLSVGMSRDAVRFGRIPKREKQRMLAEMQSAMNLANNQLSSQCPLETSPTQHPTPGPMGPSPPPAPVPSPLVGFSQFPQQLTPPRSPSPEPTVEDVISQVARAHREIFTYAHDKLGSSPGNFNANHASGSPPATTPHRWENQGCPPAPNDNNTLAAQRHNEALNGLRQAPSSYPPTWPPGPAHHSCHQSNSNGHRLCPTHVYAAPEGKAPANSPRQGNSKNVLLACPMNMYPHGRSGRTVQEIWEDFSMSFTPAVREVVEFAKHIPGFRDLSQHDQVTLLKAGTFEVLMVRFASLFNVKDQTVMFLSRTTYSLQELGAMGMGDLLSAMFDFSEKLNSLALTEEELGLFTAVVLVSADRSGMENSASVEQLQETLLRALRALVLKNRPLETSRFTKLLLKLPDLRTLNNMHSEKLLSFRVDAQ

FXR = conditions: same FRET assay; reported; cited from earlier work
Rev-erbα [4] = target: T1, Rev-erbα; conditions: HEK293 cells, Gal4 DBD:REV-ERB LBD α; cited from earlier work
Rev-erbα [5] = target: T1, Rev-erbα; conditions: circular dichroism analysis; cited from earlier work
[6] = test system: REV-ERB ligand binding domain (LBD) β; conditions: HEK293 cells, Gal4 DBD:REV-ERB LBD β; cited from earlier work

CS(=O)(=O)N1CCC(CN(Cc2ccc(Cl)cc2)Cc2ccc([N+](=O)[O-])s2)C1 (stereo not drawn) [Compound 12j]
Kp at 2 h ([1]; C57Bl6, mouse, brain, ip, 10 mg/kg): 2.42

CC(C)(C)OC(=O)CN(Cc1ccc(Cl)cc1)Cc1ccc([N+](=O)[O-])s1 [Compound 1]
b.p. (brain penetration) ([1]; mice, 10 mg/kg IP in 10:10:80 DMSO:Tween:water, t = 2h): 140% | activity on RORα (RORα): no activity | interaction of Rev-erbβ with the NCoR peptide (Rev-erbβ): dose-dependently increased | activity on SF1 (SF1): no activity | EC50 [2]: 400 nM | activity on LXRβ (LXRβ): no activity | activity on LRH1 (LRH1): no activity | activity on LXRα (LXRα): no activity | interaction of Rev-erbα with the NCoR peptide (Rev-erbα [3]): dose-dependently increased | activity on FXR (FXR): no activity

CCOC(=O)N1CCC(CN(Cc2ccc(Cl)cc2)Cc2ccc([N+](=O)[O-])s2)C1 (stereo not drawn) [Compound 12e]
[Brain] ([1]; mice, 50 mg/kg IP in 15% cremaphor EL, brain levels at 8h): ^d8.7 μM | Rev-erb-dependent repressor activity (LBD α) (Rev-erbα [4]): dose-dependently increased | Direct binding to Rev-erbα (Rev-erbα [5]): confirmed | Rev-erb-dependent repressor activity (LBD β) [6]: dose-dependently increased
